Laboratory results taken from patent US11612611B2, “Composition and method for treating muscle cramps containing choline alfoscerate as active ingredient” (NANOSTEM CO., LTD., priority 2017, dated 2023).

What was measured:
[1] = reported since 1969; cited from earlier work
[2] = tested on: patients with muscle cramps; assay: Pain intensity (11-point PI-NRS) in patients with muscle cramps, one-month test; type: in vivo, human
Procedure: Patients who experience muscle cramps when stabilized for 3 months without taking exercise were selected as subjects.
The “trigger point injection group (control group)” patients were injected with 5 mL of 0.5% lidocaine at the trigger points (4-5 points), once a week.
(§1) The “choline alfoscerate intravenous administration group (Example 1)” patients were intravenously injected slowly with choline alfoscerate (1 g/4 mL) mixed in 100 mL of physiological saline, twice a week.
(§2) The “choline alfoscerate oral administration group (Example 2)” patients were […] with choline alfoscerate (400 mg/capsule), 3 times a day.
The test period was one month. […] The pain intensity was evaluated according to the 11-point pain intensity numerical rating scale (PI-NRS), where 0=no pain, weakest pain=1 and most severe pain=10. 2-point reduction in the pain intensity was considered clinically significant as reported (Farrar 2001, Rowbotham 2001, Hawker 2011). The pain intensity was measured on the first visit and was compared with the pain intensity 2 weeks (T1) and 4 weeks (T2) after the first drug administration.

[3] = tested on: patients with nocturnal calf cramps; conditions: 1-2 mL of 0.25% lidocaine at MTrPs of gastrocnemius muscle; cited from earlier work
[4] = tested on: patients with muscle cramps; assay: Frequency of muscle cramps for a week in patients with muscle cramps, one-month test; conditions: for Frequency of muscle cramps: per week
[5] = tested on: patients with muscle cramps; assay: Side effects after the treatment in patients with muscle cramps; type: in vivo, human
Procedure: as §1, §2
Because choline alfoscerate has no effect on the kidney and liver, it is thought that it can be used for people with kidney or liver problems as a therapeutic agent for muscle cramps.

[6] = trigger point injection (0.5% lidocaine), before drug administration
[7] = trigger point injection, 5 mL 0.5% lidocaine once a week, T1 (first 2 weeks)
[8] = trigger point injection, 5 mL 0.5% lidocaine once a week, T2 (second 2 weeks)
[9] = trigger point injection, 5 mL 0.5% lidocaine once a week, before drug administration (baseline)
[10] = Example 1, intravenous 1 g twice a week, T1 (first 2 weeks)
[11] = Example 1, intravenous 1 g twice a week, T2 (second 2 weeks)
[12] = Example 1, intravenous 1 g twice a week, before drug administration (baseline)
[13] = Example 2, oral 400 mg capsule 3 times a day, T1 (first 2 weeks)
[14] = Example 2, oral 400 mg capsule 3 times a day, T2 (second 2 weeks)
[15] = Example 2, oral 400 mg capsule 3 times a day, before drug administration (baseline)
[16] = intravenous administration group (Example 1), T1
[17] = intravenous administration group (Example 1), T2
[18] = intravenous administration group (Example 1), before drug administration
[19] = oral administration group (Example 2), T1
[20] = oral administration group (Example 2), T2
[21] = oral administration group (Example 2), before drug administration

## C=C[C@H]1C[N@@]2CC[C@H]1C[C@H]2[C@H](O)c1ccnc2ccc(OC)cc12 [quinine]
[1]
  death reported: 93 cases
  severe side effects reported: 665 cases

## CCN(CC)CC(=O)Nc1c(C)cccc1C [Control group (TPI), lidocaine]
[2]; trigger point injection (0.5% lidocaine), 2 weeks after first drug administration (T1)
  pain intensity: 3.74 points
[2]; trigger point injection (0.5% lidocaine), 4 weeks after first drug administration (T2)
  pain intensity: 2.11 points
[2]; [6]
  pain intensity: 5.34 points
[2]; [7]
  pain intensity: 3.74 ± 0.91
[2]; [8]
  pain intensity: 2.11 ± 0.76
[2]; [9]
  pain intensity: 5.34 ± 0.87
[3]
  frequency of cramps for a week as compared to before the administration: decreased significantly
  insomnia severity index (ISI) as compared to before the administration: decreased significantly
  intensity of pain as compared to before the administration: decreased significantly
[4]; trigger point injection (0.5% lidocaine), T1
  frequency of muscle cramps for a week: 2.00 times
[4]; trigger point injection (0.5% lidocaine), T2
  frequency of muscle cramps for a week: 1.43 times
[4]; [6]
  frequency of muscle cramps for a week: 2.84 times
[4]; [7]
  Frequency of muscle cramps: 2.00 ± 0.68
[4]; [8]
  Frequency of muscle cramps: 1.43 ± 0.53
[4]; [9]
  Frequency of muscle cramps: 2.84 ± 0.99

## C[N+](C)(C)CCOP(=O)([O-])OC[C@H](O)CO [choline alfoscerate]
[2]; [10]
  pain intensity: 2.56 ± 1.49
[2]; [11]
  pain intensity: 1.32 ± 0.91
[2]; [12]
  pain intensity: 6.50 ± 1.26
[2]; [13]
  pain intensity: 3.94 ± 1.17
[2]; [14]
  pain intensity: 1.88 ± 0.92
[2]; [15]
  pain intensity: 6.31 ± +0.94
[2]; intravenous (Example 1), at both T1 and T2, P < 0.05
  pain intensity as compared to trigger point injection group (control group): significant decrease
[2]; [16]
  pain intensity: 2.56 points
[2]; [17]
  pain intensity: 1.32 points
[2]; [18]
  pain intensity: 6.50 points
[2]; [19]
  pain intensity: 3.94 points
[2]; [20]
  pain intensity: 1.88 points
[2]; [21]
  pain intensity: 6.31 points
[5]; intravenous administration group (Example 1)
  side effect after the treatment: no side effect
[5]; oral administration group (Example 2)
  side effect after the treatment: no side effect
[4]; [10]
  Frequency of muscle cramps: 1.56 ± 1.34
[4]; [11]
  Frequency of muscle cramps: 0.88 ± 1.19
[4]; [12]
  Frequency of muscle cramps: 4.91 ± 2.40
[4]; [13]
  Frequency of muscle cramps: 2.67 ± 1.07
[4]; [14]
  Frequency of muscle cramps: 1.05 ± 0.70
[4]; [15]
  Frequency of muscle cramps: 5.25 ± 1.47
[4]; intravenous (Example 1), T1, P < 0.05
  frequency of muscle cramps for a week as compared to control group: significant decrease
[4]; intravenous (Example 1), T2
  frequency of muscle cramps as compared to control group: significant decrease
[4]; [16]
  frequency of muscle cramps for a week: 1.56 times
[4]; [17]
  frequency of muscle cramps for a week: 0.88 time
[4]; [18]
  frequency of muscle cramps for a week: 4.91 times
[4]; oral (Example 2), T1, higher baseline frequency in this group
  frequency of muscle cramps for a week as compared to control group: significant increase
[4]; oral (Example 2), T2
  frequency of muscle cramps as compared to control group: significant decrease
[4]; [19]
  frequency of muscle cramps for a week: 2.67 times
[4]; [20]
  frequency of muscle cramps for a week: 1.05 times
[4]; [21]
  frequency of muscle cramps for a week: 5.25 times
